Values after ≈ are worked out from the molar mass of the structure shown.
How the values were obtained:
[1] = tested on: MCF-7 (human adenocarcinoma); experiment: Cytotoxic activity, WST-1 assay; assay type: cell-based; conditions: MCF-7, 72 h, Neg = negative in the concentration used
[2] = tested on: C-32 (human amelanotic melanoma); experiment: Cytotoxic activity, WST-1 assay; assay type: cell-based; conditions: C-32, 72 h, Neg = negative in the concentration used
[3] = tested on: Colo-829 (human malignant melanoma); experiment: Cytotoxic activity, WST-1 assay; assay type: cell-based; conditions: Colo-829, 72 h, Neg = negative in the concentration used
[4] = tested on: T47D (human ductal carcinoma); experiment: Cytotoxic activity, WST-1 assay; assay type: cell-based
SNB-19 (glioblastoma) = experiment: Cytotoxic activity, WST-1 assay; assay type: cell-based, human; conditions: SNB-19, 72 h, Neg = negative in the concentration used
[5] = tested on: SKOV-3 human ovarian cancer cell line; experiment: Inhibition of tumor cell proliferation (MTT); conditions: SK-OV-3, 96 h, read-out: Max. Inhibition (% of Control)
Method: Antiproliferative activities of the compounds were measured by the MTT assay using A549 cells and a human ovarian cancer cell line SKOV-3 (adenocarcinoma ATCC® HTB77™). A total of 2 × 10^3 cells in DMEM medium supplemented with 5% FBS were placed in each well of a 96-well flat-bottom plate. After 24 h of incubation at 37 °C in 5% CO2, the growth medium was replaced by media containing different concentrations of the derivatives. Control cultures received cisplatin 0.1–10 μg/mL, and blank wells contained 100 μL of growth medium with no cells. After 96 h of incubation, cell proliferation was determined by the colorimetric MTT assay (570 nm) reading for each concentration compared with the control. At least three replicates for each sample were used to determine the cell proliferation.

[6] = tested on: cytopathogenic bovine orphan virus (ECBO) strain LCR-4; experiment: Time of addition assay (post-adsorption), CPE/MTT in A549 cells; assay type: cell-based, cytopathogenic bovine orphan virus (BEV-1); conditions: for EC50: A549; for SI: selectivity index, ratio of CC50 to EC50, ECBO in A549 cells
in vitro = conditions: human
Method: The cytotoxic effect of compounds on A549 cells was determined by the MTT method, as previously described [36]. The MTT assay is the enzyme-based method, which use the 3-(4,5-dimethylthiazol-2-yl)-2,5-diphenyltetrazolium bromide as a reductive coloring agent. Briefly, subconfluent monolayers of A549 cells (2 × 10^4 cell/well in Dulbecco’s Minimal Essential Medium (DMEM) supplemented with 5% fetal bovine serum (FBS), antibiotics (100 U/mL penicillin and 100 μg/mL streptomycin), and 2 mM L-glutamine (all from Sigma Aldrich, St. Louis, MO, USA) were incubated in 96-multi-well plates in the presence of dilutions of the compounds ranging from 100 μg/mL to 0.5 μg/mL, in triplicate for 48 h at 37 °C in a humidified atmosphere with 5% CO2. After 48 h, 20 μL of MTT solution (Promega, Madison, WI, USA) was added to each well, and the microplates were kept at 37 °C/5% CO2 for 3 h. Then, the solubilization/stop solution containing SDS-HCl (100 μL/well) was added, and the absorbance values of the wells were measured at 570 nm using a 96-well plate reader (Multiskan RC spectrophotometer, Thermo Labsystems, Waltham, MA, USA). Cell viability (%) was calculated for each concentration as Abs treated/Abs control × 100, where Abs treated and Abs control are the absorbance readings for the wells with and without the tested compounds, respectively. The 50% cytotoxic concentration (CC50) was defined as the concentration that reduced cell viability by 50% with respect to controls without drugs. The CC50 value was calculated from the corresponding dose–response curves.

[7] = 72 h, Neg = negative in the concentration used
[8] = Homo sapiens, 72 h, Neg = negative in the concentration used

Row | Compound | IC50 ([1]; Homo sapiens, MCF7) [µM] | IC50 ± SD [2] | IC50 ([3]; Homo sapiens) [µM] | IC50 [4, 8] [µM] | melting point [°C] | IC50 (SNB-19 (glioblastoma); Homo sapiens) [µM] | IC50 ± SD [1] | further results
1 | N.N.[Cl][Pt][Cl] [Cisplatin, reference compound] | – | – | – | – | – | – | – | IC50 [1]: 5.5 ± 1 µM; IC50 [2]: 12.3 ± 2.1 µM; IC50 [3]: 16.8 ± 1.7 µM; IC50 [4, 7]: 24.9 ± 1.1 µM; IC50 (SNB-19 (glioblastoma)): 2.3 ± 0.05 µM
2 | C=C(C)C1CC[C@]2(COC(=O)c3cn(Cc4ccccc4)nn3)CC[C@]3(C)C(CCC4[C@@]5(C)CC[C@H](O)C(C)(C)C5CC[C@]43C)C12 (stereo partly drawn) [Compound 5a, 28-O-(1-Benzyl-1H-1,2,3-triazol-4-yl)carbonylbetulin] | 58.8 ± 1.5 | Neg | 78.5 ± 8.3 | 10.5 ± 0.09 | 169 to 171 | 96.2 ± 1.2 | – | inhibition at 25 µg/mL [5]: 40%
3 | C=C(C)C1CC[C@]2(COC(=O)c3cn(Cc4ccc(F)cc4)nn3)CC[C@]3(C)C(CCC4[C@@]5(C)CC[C@H](O)C(C)(C)C5CC[C@]43C)C12 (stereo partly drawn) [Compound 5b, 28-O-[1-(4-Fluorobenzyl)-1H-1,2,3-triazol-4-yl]carbonylbetulin] | – | Neg | 129 ± 7.7 | 8.5 ± 0.02 | 144 to 147 | 66.1 ± 0.7 | Neg | inhibition at 10 µg/mL [5]: 40%
4 | C=C(C)C1CC[C@]2(COC(=O)c3cn(Cc4ccc(C#N)cc4)nn3)CC[C@]3(C)C(CCC4[C@@]5(C)CC[C@H](O)C(C)(C)C5CC[C@]43C)C12 (stereo partly drawn) [Compound 5c, 28-O-[1-(4-Cyanobenzyl)-1H-1,2,3-triazol-4-yl]carbonylbetulin] | – | Neg | 9.7 ± 0.1 | 1.4 ± 0.01 | 225 to 228 | 0.7 ± 0.08 | Neg | –
5 | C=C(C)C1CC[C@]2(COC(=O)c3cn(CSc4ccccc4)nn3)CC[C@]3(C)C(CCC4[C@@]5(C)CC[C@H](O)C(C)(C)C5CC[C@]43C)C12 (stereo partly drawn) [Compound 5d, 28-O-(1-Phenylthiomethyl-1H-1,2,3-triazol-4-yl)carbonylbetulin] | – | Neg | 100 ± 5.5 | 52.5 ± 1.4 | 143 to 146 | 13 ± 0.09 | Neg | inhibition at 10 µg/mL [5]: 40%
6 | C=C(C)C1CCC2(COC(=O)c3cn(C4OC(CO)C(O)C(O)C4O)nn3)CCC3(C)C(CCC4C5(C)CCC(O)C(C)(C)C5CCC43C)C12 [Compound 5f, 28-O-[1-(1-Deoxy-β-D-glucopyranosyl)-1H-1,2,3-triazol-4-yl]carbonylbetulin] | – | Neg | 110 ± 7.2 | – | 184 to 186 | – | Neg | inhibition at 25 µg/mL [5]: 35%; EC50 [6]: 5 µg/mL (≈ 7.14 µM); SI [6]: 20.0; IC50 ± SD [4, 7]: total decay of cytotoxic activity and Neg; CC50 at 48 h (in vitro): 100 µg/mL (≈ 143 µM); IC50 ± SD (SNB-19 (glioblastoma)): Neg
7 | C=C(C)C1CC[C@]2(COC(=O)c3cn(CC(=O)OCC)nn3)CC[C@]3(C)C(CCC4[C@@]5(C)CC[C@H](O)C(C)(C)C5CC[C@]43C)C12 (stereo partly drawn) [Compound 5g, 28-O-(1-Ethylacetyl-1H-1,2,3-triazol-4-yl)carbonylbetulin] | – | Neg | 11.4 ± 0.2 | 135 ± 2.6 | 176 to 181 | 92.3 ± 0.9 | Neg | –
8 | C=C(C)C1CC[C@]2(COC(=O)c3cn(CCCO)nn3)CC[C@]3(C)C(CCC4[C@@]5(C)CC[C@H](O)C(C)(C)C5CC[C@]43C)C12 (stereo partly drawn) [Compound 5h, 28-O-[1-(3-Hydroxypropyl)-1H-1,2,3-triazol-4-yl]carbonylbetulin] | 15.5 ± 1.1 | – | 6.2 ± 0.6 | 1.3 ± 0.05 | – | 9.9 ± 0.7 | – | EC50 [6]: 0.5 µg/mL (≈ 0.839 µM); SI [6]: 55.5; IC50 ([2]; Homo sapiens): 80.3 ± 5.8 µM; potency relative to cisplatin ([4]; ratio of IC50 values): 19 fold; CC50 at 48 h (in vitro): 27.7 µg/mL (≈ 46.5 µM)
9 | C=C(C)C1CC[C@]2(COC(=O)c3cn(CCCN)nn3)CC[C@]3(C)C(CCC4[C@@]5(C)CC[C@H](O)C(C)(C)C5CC[C@]43C)C12 (stereo partly drawn) [Compound 5i, 28-O-[1-(3-Aminopropyl)-1H-1,2,3-triazol-4-yl]carbonylbetulin] | 6.94 ± 0.8 | – | 0.6 ± 0.13 | 3.63 ± 0.3 | 156 to 160 | 0.9 ± 0.03 | – | IC50 ([2]; Homo sapiens): 7.9 ± 0.9 µM

— PMC6150379, “Novel Triazole Hybrids of Betulin: Synthesis and Biological Activity Profile” (Molecules : A Journal of Synthetic Chemistry and Natural …, 2017)
